Read-outs that look alike come from different tables or passages of the source.
Biological target: T1, human NatA (Homo sapiens, UniProt P41227+Q9BXJ9)
T1 construct: Human NatA (hNatA) full-length (FL) was cloned; made in house; host or cells: Tnao38 insect cells (baculovirus, pFL vector)
T1 sequence (P41227 1-235): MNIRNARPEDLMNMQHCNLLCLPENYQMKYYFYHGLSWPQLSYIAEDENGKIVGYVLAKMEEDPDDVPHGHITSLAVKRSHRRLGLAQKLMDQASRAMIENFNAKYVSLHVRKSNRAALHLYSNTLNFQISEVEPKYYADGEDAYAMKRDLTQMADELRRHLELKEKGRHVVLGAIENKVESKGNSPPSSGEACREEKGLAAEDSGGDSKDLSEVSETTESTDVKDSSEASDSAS
T1 sequence (Q9BXJ9 1-866 partner): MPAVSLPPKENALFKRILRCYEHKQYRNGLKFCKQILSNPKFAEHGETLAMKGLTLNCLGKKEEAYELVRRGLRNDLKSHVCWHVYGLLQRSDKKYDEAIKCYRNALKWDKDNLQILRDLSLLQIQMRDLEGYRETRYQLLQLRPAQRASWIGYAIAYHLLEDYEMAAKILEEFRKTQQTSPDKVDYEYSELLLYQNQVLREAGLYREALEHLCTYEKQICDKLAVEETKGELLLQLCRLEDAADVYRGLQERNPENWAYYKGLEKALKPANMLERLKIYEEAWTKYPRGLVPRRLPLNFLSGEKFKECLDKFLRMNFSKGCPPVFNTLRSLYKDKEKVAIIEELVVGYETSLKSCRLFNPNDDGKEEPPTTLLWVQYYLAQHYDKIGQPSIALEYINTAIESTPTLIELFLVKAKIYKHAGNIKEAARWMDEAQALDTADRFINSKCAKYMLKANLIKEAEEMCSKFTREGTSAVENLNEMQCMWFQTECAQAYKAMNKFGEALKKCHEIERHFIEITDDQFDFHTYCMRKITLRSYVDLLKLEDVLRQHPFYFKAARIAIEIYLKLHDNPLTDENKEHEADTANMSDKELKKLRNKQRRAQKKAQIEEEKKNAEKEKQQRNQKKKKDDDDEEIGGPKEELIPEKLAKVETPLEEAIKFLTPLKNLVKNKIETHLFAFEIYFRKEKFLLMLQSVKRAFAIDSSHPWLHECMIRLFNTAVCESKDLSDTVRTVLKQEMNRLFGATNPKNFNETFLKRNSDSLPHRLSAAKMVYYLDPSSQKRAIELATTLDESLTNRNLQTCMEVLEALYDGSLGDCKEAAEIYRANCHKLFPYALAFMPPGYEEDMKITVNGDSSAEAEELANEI
Assay: In vitro Nt-acetylation assay (NatA, CPM fluorescence)
Format: biochemical
Experimental: Gly-starting proteins can be substrates of the Nt-acetyltransferase NatA[3],[21]. Having established direct DCAF10 binding to Ac-Gly N-termini, we next asked whether SFK N-termini are bona fide NatA substrates. We developed an in vitro Nt-acetylation assay comprising purified NatA, acetyl-CoA (Ac-CoA), and the peptide of interest (Fig. 3a, b)[33]. Acetyl-group transfer was assessed using CPM [7-(diethylamino)−3-(4′-maleimidophenyl)−4-methylcoumarin], which reacts specifically with free thiol groups to produce a highly fluorescent product (excitation: 390 nm; emission: 479 nm), allowing detection of CoA production after acetyl-group transfer to the peptide (Supplementary Fig. 4e). We optimized the conditions to determine Michaelis–Menten kinetics for NatA-mediated Nt-acetylation with a target peptide ([…]) previously used for NatA assays and co-crystallization (Supplementary Fig. 4f)[34]. […] Likely, this was due to a Km even higher than that of Src, and implying that the peptide concentrations in the assay might have been insufficient for the reaction to proceed with an appreciable rate. […] Negative controls (COX17 and Ac-Lyn) produced low signals. […] Given the direct association of NatA with SFK N-termini at the ribosomal exit tunnel, however, we surmise that Nt-acetylation of SFKs in cells may proceed despite these unfavorable kinetic parameters.
The assay was performed essentially as described previously. Briefly, peptide substrates (Supplementary Table 1) were incubated with purified human NatA and acetyl-CoA; acetylation was quantified by CPM fluorescence (CoA detection), and Michaelis–Menten parameters were derived from 8-point 1:1 dilution series within the linear range (n = 4 independent enzymatic assays). Full buffer compositions, reagent concentrations, plate format, instrument settings, controls, and fitting procedures are provided in the Supplementary Methods and Tables. […]
301 Cloning, expression, and purification of human NatA
302 Human NatA (hNatA) full-length (FL) was cloned in a pFL vector expressing both
303 genes, NAA15 with a 6× C-term histidine tag (NAA15-6xHIS) and NAA102. The
304 expression was carried out in insect cells (Tnao38) for 72 h infected 1:20 with
305 baculovirus. Washed cell pellets were lysed by sonication in a lysis buffer containing 200
306 mM NaCl, 50 mM HEPES pH 8.0, 20 mM Imidazole, and 2 mM TCEP. The protein
307 purification was performed as a three-step purification, starting with an affinity nickel
308 column, followed by an ion-exchange column with a gradient of 50–300 mM NaCl, and
309 finished with size exclusion chromatography (SEC) using an S200 10/300 column. The
310 main peaks were collected, and the protein was concentrated in the SEC buffer (150 mM
311 NaCl, 50 mM HEPES pH 8.0, 1 mM EDTA). The purified hNatA was flash-frozen in
312 liquid nitrogen and stored at -80°C.
314 In vitro Nt-acetylation assay
315 The method has been described in detail previously2. Briefly, different peptides
316 (Supplementary Table 1) and concentrations (an eight-step, 1:1 dilution series for
317 Michaelis-Menten curves) as indicated were incubated with 20 nM hNatA and 80 µM Ac-
318 CoA in reaction buffer (50 mM HEPES pH 8.0, 0.5 mM EDTA, 0.005% CHAPS) for 60
319 (Src) or 120 min (Lyn), at RT in a 384-well microplate (Corning 4514) (n = 4).
320 Afterwards, the enzymatic reaction was stopped by adding 1:1 DMSO with 10 µM (final
321 concentration 5 µM) of the thiol reactive CPM (7-Diethylamino-3-
322 (4'Maleimidylphenyl)4-Methylcoumarin). After 1 h at RT, the readout was performed
323 with a Tecan Spark® Multimode Microplate Reader (excitation 390 nm, emission 479
324 nm). Background values at 0 µM peptide were subtracted, and control reactions omitting
325 NatA or Ac-CoA were performed. Dilution series of CoA incubated with 5 µM CPM were
326 used to generate a linear equation (y = 10.99*x + 81.06) to calculate acetylation velocities
327 for NatA-mediated peptide acetylation. […]

[1] = starting peptide concentration 1 mM
[2] = 20 nM NatA, 80 µM Ac-CoA, pH 8.0, RT, 120 min, peptide up to 1 mM, CPM fluorescence, mean ± s.d., n = 4, read-out: Km
[3] = conclusion: poor NatA substrates, read-out: Km, summary statement
[4] = original assay, peptide up to 160 μM
[5] = rounded values in Peer Review File, read-out: Km, as given in rebuttal

Row | Sequence | Nt-acetylation by NatA (in words) [1] | Km [2] [µM] | Km [3] [µM] | Nt-acetylation by NatA (in words) [4] | Km [5] [µM]
1 | GCIKSKGKDSKK [Ac-Lyn, Nt-peptide of Lyn (aa 1–10 + KKK-biotin), Nt-acetylated] | low signals |  |  |  | 
2 | GCIKSKGKDSKK [Nt-free Lyn, Nt-peptide of Lyn (aa 1–10 + KKK-biotin), Nt-free] | detectable Nt-acetylation | 411 ± 94 | > 100 | did not show Nt-acetylation under these conditions | 411
3 | GCVQCKDKEAKK [Nt-free Fyn, Nt-peptide of Fyn, Nt-free] | detectable Nt-acetylation | 235 ± 46 | > 100 | did not show Nt-acetylation under these conditions | 235
4 | GSNKSKPKDAKK [Ac-Src, Nt-peptide of Src, Nt-acetylated] |  |  |  | no detectable acetylation | 

Source: paper PMC12775124, “CUL4A-DDB1-DCAF10 is an N-recognin for N-terminally acetylated Src kinases” (Nature Communications, 2026)
